The record followed here is patent publication US11389423B2, “Pharmaceutical composition, excipient for the composition and use of the composition” (priority 2018, dated 2022).

The test system of data set [1] is Salmonella typhimurium TA98. The experiment in a line: AMES test, strain TA98. To be noted: TA98, with (+S9) and without (-S9) metabolic activation, 62.5-375 μg/plate. The format is cell-based. The source says: For the AMES test, the TA 100 and TA 98 strains of Salmonella typhimurium were used. The strain TA 100, which detects mutagens causing base pair replacement in DNA, contains a mutation in the hisG gene (hisG46), which codes for the first histidine biosynthesis enzyme, with the CG pair as the preferred point for reversion. The strain TA 98 has a mutation in the hisD gene to reverse eight repetitive GC residues and detects mutagenic compounds causing the DNA reading frame to shift. According to the methodology of direct incorporation in plates, developed by Maron and Ames (1983), different concentrations of CBD-SINT (375, 250, 125 and 62.5 μg/plate) were mixed with 0.1 mL of the bacteria culture and 2 mL of surface agar (top agar), supplemented with traces of histidine and biotin. For the tests with metabolic activation, 0.5 mL homogenized microsomal fraction S9 of rat liver (post-mitochondrial fraction, supplemented with a cofactor, prepared from the liver of rodents treated with an enzymatic inducing agent, arochloror 1254) (MOLTOX—Molecular Toxicology, USA) were added. As a negative control, double-distilled water (vehicle) was used. As a positive control for TA98, 4-nirophenylenediamine (NPD) dissolved in DMSO was used at a concentration of 10 μg/plate. […] After this period, the number of reversing colonies per plate was counted. […]

Data set [2] concerns male rabbits. The data set can be described thus: Effects on central nervous system, modified Irwin test. It counts as in vivo, New Zealand rabbits. The settings on record: male rabbits, 17, 51 and 170 mg/kg by gavage, single dose. On the procedure: (§1) Male New Zealand rabbits (n=6 per group) were used for pharmacological safety tests. All tests were performed orally (route recommended for humans) and the investigated parameters were determined after a single administration of CBD-SINT. CBD-SINT doses were determined by allometric extrapolation from the average dose used in human patients (25 mg/kg).
(§2) The dose of 51 mg/kg was used as the intermediate dose, stipulating a higher and a lower dose. Three dose ranges were used according to the Guide for Conducting Non-Clinical Toxicology and Pharmacological Safety Studies Necessary for Drug Development (ANVISA, 2013; Version 1.2). Thus, the doses used were 17, 51 and 170 mg/kg of CBD-SINT.
Effects on the central nervous system were assessed in male rabbits according to the modified Irwin test (Roux et al., 2005).
After 6 h-fasting, three doses of CBD (17, 51 and 170 mg/kg) were administered to different groups of male rabbits by gavage. Placebo was administered to the control group (1 mL/kg). The solid diet was released to the animals 1 hour after the treatments.
The clinical and behavioral effects were assessed at 0-15 min, 15, 30, 60, 120 and 180 min and 24 h after administrations. […]

The subject of data set [3] is male rabbits. The experiment in a line: Effects on respiratory system, respiratory rate. The format is in vivo, New Zealand rabbits. The settings on record: one hour after treatment. As for the experimental part:
as §1, §2
After 6-h fasting, three doses of CBD-SINT (17, 51 and 170 mg/kg) were administered to different groups of male rabbits by gavage. Placebo was administered to the control group (1 mL/kg). One hour after treatments, all rabbits remained conscious in the prone position. The respiratory rate was determined using a Kofranyi-Michaelis respirometer (Murphy, 2002). For arterial blood gas analysis, arterial blood samples were taken from the central ear artery and immediately processed. All parameters below were determined on a Cobas b 221 multiparametric blood gas analyzer (Roche Diagnostics, Rotkreuz, Switzerland): pH, PCO2 (mm Hg), PO2 (mm Hg), SO2(%), Htc (%), tHb (g/dL), Na+ (mmol/L), K+ (mmol/L), Ca2+ (mmol/L), Cl− (mmol/L), glucose (mg/dL), lactate (mmol/L), O2Hb (%), HHb (%), P50 (mm Hg), H+ (nmol/L), BE (nmol/L), BEecf (nmol/L), BB (mmol/L), cHCO3 (mmol/L), ctCO2 (B) (mmol/L), ctCO2 (P) (mmol/L) and ctO2 (% by volume).

For data set [4], the system named is male rabbits. The experiment in a line: Electrocardiography. It counts as in vivo, New Zealand rabbits. To be noted: male rabbits, 17, 51 and 170 mg/kg by gavage, one hour after treatment. On the procedure: as §1, §2
a) Electrocardiography, wherein after a 6-h fasting, three doses of CBD (17, 51 and 170 mg/kg) were administered to different groups of male rabbits by gavage. Placebo was administered to the control group (1 mL/kg). One hour after treatments, all rabbits remained conscious in the supine position. Four electrodes (RL, RA, LL, and LA) were placed in the folds of both elbows and both knees. The V1 electrode was positioned in the 4th intercostal space to the right of the sternum. […] An acclimatization time of 5 min was waited, and then the cardiographic electric waves were recorded for 5 min. The electrocardiography was recorded with an ECG recorder (WinCardio, Micromed, Brasilia, Brazil).

As for `C=C(C)[C@@H]1CCC(C)=C[C@H]1c1c(O)cc(CCCCC)cc1O` [CBD-SINT, Cannabidiol], in data set [1], the “frequency of reversible mutants with the increase in concentration” value is on record as “no increase” and the “mutagenicity ratios (MR)” value was “less than 2”. Besides, in data set [2], the “animals' behavior or physiological status until the end of the 24 h” value is listed as “no significant changes” and the “inactivity or refusal to consume food or water during the observation period (24 h)” value was “none of the experimental animals was inactive or refused to consume food or water”. The respiratory rate in data set [3] (17 mg/kg by gavage) turned out to be 55±6.48 bpm. The respiratory rate in data set [3] (51 mg/kg by gavage) was found to be 57±5.43 bpm. Also, the respiratory rate in data set [3] (170 mg/kg by gavage) was 56±5.66 bpm. In data set [4], the “PR, QRS or QT segments” value is “no significant changes” and the “amplitudes of P, R or T waves vs placebo” value is listed as “no changes”.
